Patent US5599975A, “Cyclised analogues of fatty acid metabolites” (Adir Et Compagnie, priority 1993, dated 1997)

system: rabbit platelets; experiment: Platelet aggregation study: anti-aggregating effect on platelets activated with collagen; format: cell-based; settings: Oryctolagus cuniculus, 0.05 h, collagen (2 μl/ml), 37° C., 3 minutes incubation, aggregometer, 1000 rpm, read-out: IC50 (concentration of antagonist necessary to produce 50% inhibition of the aggregating responses to collagen)
Protocol: The study is carried out on rabbit platelets. […] The plasma rich in platelets (PRP) is obtained by centrifuging (20° C.) at 250 g for 20 minutes. The PRP is centrifuged again (1000 g) for 15 minutes and the platelet sediment is again suspended in a saline solution buffered with tris(hydroxymethyl)aminomethane, containing gelatin (0.2%). After centrifuging again (1000 g; 15 min.), the sediment is again suspended in a physiological solution and stored at room temperature.
The anti-aggregating effect of the products is examined on platelets activated with collagen (2 μl/ml). The platelet aggregation is carried out at 37° C. in siliconised glass tubes using an aggregometer (Coultronics). The platelets are stirred at 1000 rpm. To test the antagonist effect, the PRP is incubated for 3 minutes at 37° C. with the substance to be tested. The collagen is then added (2 μl/ml).

Row | SMILES | IC50
1 | CCCCCC#CCC(O)c1cccc(/C=C\CCCC(=O)O)c1 (centres unmarked) [Example 4] | 2.2 µM
2 | CCCCCC(O)c1cccc(/C=C\CCCC(=O)O)c1 (centres unmarked) [Example 12, Sodium (5Z)-6-[3-(1-hydroxyhex-1-yl)phenyl]hex-5-enoate] | 20 µM
3 | CCCCCC(O)c1cccc(/C=C\CCCC(=O)O)n1 (centres unmarked) [Example 18, Sodium (5Z)-6-[6-(1-hydroxyhex-1-yl)pyrid-2-yl]hex-5-enoate] | 30 µM
4 | CCCCCC(O)c1cccc(CCCCCC(=O)O)c1 (centres unmarked) [Example 15, Sodium 6-[3-(1-hydroxyhexyl)phenyl]hexanoate] | 21 µM
5 | CCCCC/C=C\CC(O)c1cccc(/C=C\CCCC(=O)O)c1 (centres unmarked) [Example 26, Sodium (5Z)-6-{3-[(3Z)-(1-hydroxynon-3-en-1-yl)]phenyl}hex-5-enoate] | 1.8 µM
